Starred links: 1 amine or outer side, 2 acyl side, 3 side chain; linkers in the order of their positions; H or OH if unused. Positions of bridges follow the written chain, without caps; N, C: chain ends. Non-standard residues stand in square brackets, D forms with d. Residues, ends and D or L forms follow the SMILES beside them. Groups on a side chain read outwards from the residue. *: point of attachment. CH3O(CH2CH2O)11CH2CH2CO = COCCOCCOCCOCCOCCOCCOCCOCCOCCOCCOCCOCCC(=O)*; PEG12 = NCCOCCOCCOCCOCCOCCOCCOCCOCCOCCOCCOCCOCCC(=O)O; Ala(1H-tetrazol-5-yl) = N[C@@H](Cc1nnn[nH]1)C(=O)O; C18 diacid = O=C(O)CCCCCCCCCCCCCCCCC(=O)*; Dip = N[C@H](C(=O)O)C(c1ccccc1)c1ccccc1; γGlu = O=C(O)[C@H](CCC(=O)[*:2])N[*:1]; Palmitoyl = CCCCCCCCCCCCCCCC(=O)*; β3hF = N[C@H](CC(=O)O)Cc1ccccc1; Isovaleryl = CC(C)CC(=O)*; AEEA = NCCOCCOCC(=O)O; X4 = O=C(CCC(F)(F)F)*; Ahx = NCCCCCC(=O)O
What was measured:
ferroportin [1] = molecular target: T1, ferroportin (Homo sapiens, UniProt Q9NP59); assay: FPN activity assay: internalization/degradation of ferroportin-GFP in stably transfected HEK293 cells, decrease in GFP fluorescence; format: cell-based; design: expressed in transfected cells; settings: HEK293 cells stably expressing ferroportin-GFP, at least 18 hours incubation; read-out: FPN EC50
T1 sequence (Q9NP59 1-571): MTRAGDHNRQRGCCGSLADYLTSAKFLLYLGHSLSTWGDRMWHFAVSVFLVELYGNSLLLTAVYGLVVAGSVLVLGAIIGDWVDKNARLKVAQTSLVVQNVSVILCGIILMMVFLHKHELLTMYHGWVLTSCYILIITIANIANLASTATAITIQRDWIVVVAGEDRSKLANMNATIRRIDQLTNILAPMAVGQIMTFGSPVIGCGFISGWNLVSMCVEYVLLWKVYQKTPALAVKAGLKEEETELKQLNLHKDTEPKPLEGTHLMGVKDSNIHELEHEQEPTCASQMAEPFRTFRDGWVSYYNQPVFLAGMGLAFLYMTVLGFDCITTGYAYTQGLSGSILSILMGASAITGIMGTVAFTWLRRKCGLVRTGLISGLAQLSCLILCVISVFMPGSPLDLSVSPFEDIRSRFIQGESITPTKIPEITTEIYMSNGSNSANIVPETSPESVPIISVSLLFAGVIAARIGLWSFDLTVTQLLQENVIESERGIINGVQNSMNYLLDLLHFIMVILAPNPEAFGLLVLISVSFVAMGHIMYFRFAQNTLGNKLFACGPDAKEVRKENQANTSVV

ferroportin [2] = molecular target: T1, ferroportin; assay: T47D cell-based ferroportin internalization assay in presence of 0.5% mouse serum albumin (MSA), AF647-conjugated detection peptide, flow cytometry; design: a human breast carcinoma adherent cell line which endogenously expresses ferroportin; host or cells: T47D; settings: T47D cells, 1 hr incubation
Experimental: The potency of the peptides in causing ferroportin internalization was evaluated in a T47D cell-based assay. […] In this internalization assay, the potency of the test peptides was evaluated in presence of serum albumin which is the main protein component in the blood. T47D cells were maintained in RPMI media (containing required amount of fetal bovine serum) and regularly sub-cultured. In preparation for the assay, the cells were seeded in 96-well plates at a density of 80-100 k cells per well in 100 ul volume and allowed to rest overnight. On the next day, test peptides were first prepared in dilution series (10-point series, starting concentration of ˜5 μM, typically 3-4×fold dilution steps), all with 0.5% mouse serum albumin (MSA purified from mouse serum; Sigma, A3139). The test peptide dilution series were allowed to incubate at room temperature for 30 min. Then the media was aspirated from the 96-well cell plate and test peptide dilution series were added. After 1 hr incubation, the media with test peptides was aspirated out and AF647-conjugated detection peptide was added at fixed concentration of 200 nM. The AF647-conjugated detection peptide was previously verified to bind to ferroportin and cause its internalization. The cells were washed again after a 2 hr incubation in preparation for flow cytometry analysis. The Median Fluorescence Intensity (MFI) of the AF647-positive population was measured (after removing dead cells and non-singlets from the analysis). The MFI values were used to generate a dose-response curve and obtain IC50 potencies for the test peptides. The IC50 potencies were calculated by using 4-parameter non-linear fitting function in Graphpad Prism (Table 2A).

Compound	DC50 (ferroportin [1])	IC50 (ferroportin [2])
CCCCCCCCCCCCCCCC(=O)NCCOCCOCCOCCOCCOCCOCCOCCOCCOCCOCCOCCOCCC(=O)NCCCC[C@@H]1NC(=O)[C@H]([C@@H](C)CC)NC(=O)[C@@H](NC(=O)[C@@H]2CCCN2C(=O)[C@@H](NC(=O)[C@H](Cc2c[nH]cn2)NC(=O)[C@@H](NC(=O)[C@H](Cc2nn[nH]n2)NC(=O)CC(C)C)[C@@H](C)O)C(c2ccccc2)c2ccccc2)CSSC[C@@H](C(N)=O)NC(=O)[C@@H](CCCCN)NC(=O)C[C@H](Cc2ccccc2)NC1=O [Compd 1, Isovaleric Acid-[Tet1]-T-H-[Dpa]-P-[Cys]-I-[Lys(PEG12_Palm)]-[bhPhe]-[(D)Lys]-[Cys]-NH2] (Isovaleryl-[Ala(1H-tetrazol-5-yl)]TH[Dip]PCIK([PEG12-Palmitoyl])[β3hF][dK]C-NH2; disulfide 6-11)	10 to 100 nM	1 to 10 nM
CC[C@H](C)[C@@H]1NC(=O)[C@@H](NC(=O)[C@@H]2CCCN2C(=O)[C@@H](NC(=O)[C@H](Cc2cncn2C)NC(=O)[C@@H](NC(=O)[C@H](CC2N=NN=N2)NC(=O)CC(C)C)[C@@H](C)O)C(c2ccccc2)c2ccccc2)CSSC[C@@H](C(N)=O)NC(=O)[C@@H](CCCCN)NC(=O)C[C@H](Cc2ccccc2)NC(=O)[C@H](CCCCNC(=O)COCCOCCNC(=O)COCCOCCNC(=O)CC[C@H](NC(=O)CCCCCCCCCCCCCCCCC(=O)O)C(=O)O)NC1=O [Compd 8, Isovaleric Acid-[Tet1]-T-[His_3Me]-[Dpa]-P-[Cys]-I-[Lys(1PEG2_1PEG2_IsoGlu_C18_Diacid)]-[bhPhe]-[(D)Lys]-[Cys]-NH2]	10 to 100 nM	100 to 500 nM
CC[C@H](C)[C@@H]1NC(=O)[C@@H](NC(=O)[C@@H]2CCCN2C(=O)[C@@H](NC(=O)[C@H](Cc2c[nH]cn2)NC(=O)[C@@H](NC(=O)[C@H](Cc2nn[nH]n2)NC(=O)CC(C)C)[C@@H](C)O)C(c2ccccc2)c2ccccc2)CSSC[C@H](C(N)=O)NC(=O)C[C@H](Cc2ccccc2)NC(=O)[C@H](CCCCNC(=O)COCCOCCNC(=O)COCCOCCNC(=O)CC[C@H](NC(=O)CCCCCCCCCCCCCCCCC(=O)O)C(=O)O)NC1=O [Compd 36, Isovaleric Acid-[Tet1]-T-H-[Dpa]-P-[Cys]-I-[Lys(1PEG2_1PEG2_IsoGlu_C18_Diacid)]-[bhPhe]-d[Cys]-NH2] (Isovaleryl-[Ala(1H-tetrazol-5-yl)]TH[Dip]PCIK([AEEA-AEEA-γGlu-C18 diacid])[β3hF][dC]-NH2; disulfide 6-10)	10 to 100 nM	100 to 500 nM
CC[C@H](C)[C@@H]1NC(=O)[C@@H](NC(=O)[C@@H]2CCCN2C(=O)[C@@H](NC(=O)[C@H](Cc2c[nH]cn2)NC(=O)[C@@H](NC(=O)[C@H](Cc2nn[nH]n2)NC(=O)CC(C)C)[C@@H](C)O)C(c2ccccc2)c2ccccc2)CSSC[C@@H](C(N)=O)NC(=O)[C@@H](CCCCN)NC(=O)C[C@H](Cc2ccccc2)NC(=O)[C@H](CCCCNC(=O)COCCOCCNC(=O)COCCOCCNC(=O)CC[C@H](NC(=O)CCCCCCCCCCCCCCCCC(=O)O)C(=O)O)NC1=O [Compd 40, Isovaleric Acid-[Tet1]-T-H-[Dpa]-P-[Cys]-I-[Lys(1PEG2_1PEG2_IsoGlu_C18_Diacid)]-[bhPhe]-[(D)Lys]-[Cys]-NH2] (Isovaleryl-[Ala(1H-tetrazol-5-yl)]TH[Dip]PCIK([AEEA-AEEA-γGlu-C18 diacid])[β3hF][dK]C-NH2; disulfide 6-11)	10 to 100 nM	10 to 100 nM
CC[C@H](C)[C@@H]1NC(=O)[C@@H](NC(=O)[C@@H]2CCCN2C(=O)[C@@H](NC(=O)[C@H](Cc2c[nH]cn2)NC(=O)[C@@H](NC(=O)[C@H](Cc2nn[nH]n2)NC(=O)CC(C)C(F)(F)F)[C@@H](C)O)C(c2ccccc2)c2ccccc2)CSSC[C@@H](C(N)=O)NC(=O)[C@@H](CCCCN)NC(=O)C[C@H](Cc2ccccc2)NC(=O)[C@H](CCCCNC(=O)COCCOCCNC(=O)COCCOCCNC(=O)CC[C@H](NC(=O)CCCCCCCCCCCCCCCCC(=O)O)C(=O)O)NC1=O (some centres unmarked) [Compd 45, Butyric_Acid_3CF3-[Tet1]-T-H-[Dpa]-P-[Cys]-I-[Lys(1PEG2_1PEG2_IsoGlu_C18_Diacid)]-[bhPhe]-[(D)Lys]-[Cys]-NH2]	10 to 100 nM	100 to 500 nM
CC[C@H](C)[C@@H]1NC(=O)[C@@H](NC(=O)[C@@H]2CCCN2C(=O)[C@@H](NC(=O)[C@H](Cc2c[nH]cn2)NC(=O)[C@@H](NC(=O)[C@H](Cc2nn[nH]n2)NC(=O)C(C)(C)Br)[C@@H](C)O)C(c2ccccc2)c2ccccc2)CSSC[C@@H](C(N)=O)NC(=O)[C@@H](CCCCN)NC(=O)C[C@H](Cc2ccccc2)NC(=O)[C@H](CCCCNC(=O)COCCOCCNC(=O)COCCOCCNC(=O)CC[C@H](NC(=O)CCCCCCCCCCCCCCCCC(=O)O)C(=O)O)NC1=O [Compd 46, Propanoic_Acid_2Me2Br-[Tet1]-T-H-[Dpa]-P-[Cys]-I-[Lys(1PEG2_1PEG2_IsoGlu_C18_Diacid)]-[bhPhe]-[(D)Lys]-[Cys]-NH2]	10 to 100 nM	10 to 100 nM
CC[C@H](C)[C@@H]1NC(=O)[C@@H](NC(=O)[C@@H]2CCCN2C(=O)[C@@H](NC(=O)[C@H](Cc2c[nH]cn2)NC(=O)[C@@H](NC(=O)[C@H](Cc2nn[nH]n2)NC(=O)CCC(F)(F)F)[C@@H](C)O)C(c2ccccc2)c2ccccc2)CSSC[C@@H](C(N)=O)NC(=O)[C@@H](CCCCN)NC(=O)C[C@H](Cc2ccccc2)NC(=O)[C@H](CCCCNC(=O)COCCOCCNC(=O)COCCOCCNC(=O)CC[C@H](NC(=O)CCCCCCCCCCCCCCCCC(=O)O)C(=O)O)NC1=O [Compd 47, TriF_Butyric_Acid-[Tet1]-T-H-[Dpa]-P-[Cys]-I-[Lys(1PEG2_1PEG2_IsoGlu_C18_Diacid)]-[bhPhe]-[(D)Lys]-[Cys]-NH2] (X4-[Ala(1H-tetrazol-5-yl)]TH[Dip]PCIK([AEEA-AEEA-γGlu-C18 diacid])[β3hF][dK]C-NH2; disulfide 6-11)	10 to 100 nM	100 to 500 nM
CCCC(=O)N[C@@H](Cc1nn[nH]n1)C(=O)N[C@H](C(=O)N[C@@H](Cc1c[nH]cn1)C(=O)N[C@H](C(=O)N1CCC[C@H]1C(=O)N[C@H]1CSSC[C@@H](C(N)=O)NC(=O)[C@@H](CCCCN)NC(=O)C[C@H](Cc2ccccc2)NC(=O)[C@H](CCCCNC(=O)COCCOCCNC(=O)COCCOCCNC(=O)CC[C@H](NC(=O)CCCCCCCCCCCCCCCCC(=O)O)C(=O)O)NC(=O)[C@H]([C@@H](C)CC)NC1=O)C(c1ccccc1)c1ccccc1)[C@@H](C)O [Compd 49, Butyric_Acid-[Tet1]-T-H-[Dpa]-P-[Cys]-I-[Lys(1PEG2_1PEG2_IsoGlu_C18_Diacid)]-[bhPhe]-[(D)Lys]-[Cys]-NH2]	10 to 100 nM	10 to 100 nM
CCCCCCCCCCCCCCCC(=O)NCCCCCC(=O)NCCCC[C@@H]1NC(=O)C[C@H](Cc2ccccc2)NC(=O)[C@@H](CCCCNC(=O)CCOCCOCCOCCOCCOCCOCCOCCOCCOCCOCCOCCOC)NC(=O)[C@H]([C@@H](C)CC)NC(=O)[C@@H](NC(=O)[C@@H]2CCCN2C(=O)[C@@H](NC(=O)[C@H](Cc2c[nH]cn2)NC(=O)[C@@H](NC(=O)[C@H](Cc2nn[nH]n2)NC(=O)CC(C)C)[C@@H](C)O)C(c2ccccc2)c2ccccc2)CSSC[C@@H](C(N)=O)NC(=O)[C@@H](CCCCNC(=O)CCOCCOCCOCCOCCOCCOCCOCCOCCOCCOCCOCCOC)NC1=O [Compd 50, Isovaleric Acid-[Tet1]-T-H-[Dpa]-P-[Cys]-I-[(DLys(PEG11_OMe-[bhPhe]-[Lys(Ahx_Palm)]-[(D)Lys(PEG11_OMe)]-[Cys]-NH2] (Isovaleryl-[Ala(1H-tetrazol-5-yl)]TH[Dip]PCI[dK](CH3O(CH2CH2O)11CH2CH2CO)[β3hF]K([Ahx-Palmitoyl])[dK](CH3O(CH2CH2O)11CH2CH2CO)C-NH2; disulfide 6-12)	10 to 100 nM	1 to 10 nM
CC[C@H](C)[C@@H]1NC(=O)[C@@H](NC(=O)[C@@H]2CCCN2C(=O)[C@@H](NC(=O)[C@H](Cc2cnc[nH]2)NC(=O)[C@@H](NC(=O)[C@H](CC2N=NN=N2)NC(=O)CC(C)C)[C@@H](C)O)C(c2ccccc2)c2ccccc2)CSSC[C@@H](C(N)=O)NC(=O)[C@@H](CCCCN)NC(=O)C[C@H](Cc2ccccc2)NC(=O)[C@H](CCCCNC(=O)COCCOCCNC(=O)COCCOCCNC(=O)CCCCCNC(=O)CCCCCCCCCCCCCCCCC(=O)O)NC1=O [Compd 51, Isovaleric Acid-[Tet1]-T-H-[Dpa]-P-[Cys]-I-[Lys(1PEG2_1PEG2_Ahx_C18_Diacid)]-[bhPhe]-[(D)Lys]-[Cys]-NH2]	10 to 100 nM	10 to 100 nM
